≈ marks a conversion by molar mass, not a printed value. Counter-ions that a name gives are not always drawn. Calls of active or inactive are those of the source. The rule behind the calls is not given here.
Tests used:
[1] = test system: Staphylococcus epidermidis; assay: Antibacterial activity against Staphylococcus epidermidis; type: functional
[2] = test system: L5178Y; assay: Growth inhibition of mouse L5178Y cells at […] after 72 hrs by MTT assay relative to untreated control; type: functional; parameters: dose or concentration left out as unconfirmed; conditions: values are per cent of control
[3] = test system: Staphylococcus epidermidis; assay: Growth inhibition of Staphylococcus epidermidis; type: functional, organism-based
[4] = test system: Staphylococcus epidermidis; assay: Antibacterial activity against Staphylococcus epidermidis assessed as inhibition of biofilm formation after 18 hrs by adherent assay; type: functional, organism-based
[5] = test system: L5178Y; assay: Cytotoxicity against mouse L5178Y cells after 72 hrs by MTT assay; type: functional, cell-based
[6] = test system: Amphibalanus improvisus; assay: Antifouling activity against Balanus improvisus […] larvae assessed as inhibition of cyprid larval settlement at 0.1 uM to 100 uM; type: functional, organism-based
[7] = test system: Amphibalanus improvisus; assay: Toxicity against Balanus improvisus […] larvae assessed as cyprid larval death at 0.1 uM to 100 uM; type: ADME, organism-based; conditions: in vivo
[8] = Staphylococcus epidermidis, read-out: MIC

Structure (SMILES) | MIC [1, 8] | growth, % of control [2] | growth inhibition (GI) [3] | inhibition [4] | MIC [1] | IC50 [5] | inhibition [6] | Activity [7]
COC(=O)c1cc(Br)c(Br)n1C | > 67 µM | 83.4% | inactive | inactive | – | – | – | –
CCN1C(=N)NC(=O)C1(CCCNC(=O)c1cc(Br)c(Br)n1C)NCCS(=O)(=O)O (configuration not stated) [MAURITAMIDE C] | > 35 µM | 98.6% | inactive | inactive | – | – | – | –
Cn1c(C(=O)NCCCC2(NCCS(=O)(=O)O)NC(=N)NC2=O)cc(Br)c1Br (configuration not stated) [MAURITAMIDE B] | > 37 µM | 92.5% | inactive | inactive | – | – | – | –
CC1=CCC[C@@H](C)[C@]1(C)CC/C(C)=C/CC/C(C)=C/CS(=O)(=O)CCNC(=N)N [AGELASIDINE C] | 5.9 µM (≈ 2.5 µg/mL) | 37.4% | inactive | inactive | – | – | – | –
NC1=N[C@@]23CCCN2C(=O)c2cc(Br)c(Br)n2[C@H]3N1 [DIBROMPHAKELLIN HYDROCHLORIDE] | > 47 µM | – | – | – | – | – | – | –
NC1=N[C@@]23CCCN2C(=O)c2cc(Br)c(Br)n2[C@H]3N1 [DIBROMPHAKELLIN] | – | – | – | – | >51 µM | – | – | –
Cn1c(C(=O)O)cc(Br)c1Br | > 71 µM | 87.8% | inactive | inactive | – | – | – | –
O=C1NCC(O)n2cc(Br)cc21 (configuration not stated) | > 87 µM | 78.5% | inactive | inactive | – | > 43.2 µM | – | –
Cn1c(C(=O)NCCCC(=O)O)cc(Br)c1Br | > 54 µM | 108% | inactive | inactive | – | – | – | –
CC(=O)C(O)(CCCNC(=O)c1cc(Br)c(Br)n1C)CC(=O)O (configuration not stated) [AGELANIN B] | > 44 µM | 92.8% | inactive | inactive | – | – | – | –
NC1=N[C@@]23CCCN2C(=O)c2cc(Br)c(Br)n2[C@H]3N1 | – | – | inactive | inactive | – | – | – | –
CN(C)CCc1ccc(OCCCNC(=O)c2cc(Br)c(Br)[nH]2)c(Br)c1 [AGELANESIN C] | > 36 µM | 0.8% | inactive | inactive | – | 16.8 µM | – | –
Cn1c(C(=O)N2CCC(O)=C3N=C(N)N=C32)cc(Br)c1Br [AGELANIN A] | > 48 µM | 98.9% | inactive | inactive | – | – | – | –
C=C1CC[C@@H]2C(C)(C)CCC[C@@]2(C)[C@@H]1CC/C(C)=C/Cn1c[n+](C)c2ncnc(N)c21.[Cl-] [AGELASINE D] | < 0.0877 µM | 1.9% | inactive | inactive | – | 4.03 µM | Dose-dependent effect | Toxic
CN1C(=O)NC(CCCNC(=O)c2cc(Br)c(Br)n2C)C1=O (configuration not stated) [MIDPACAMIDE] | > 46 µM | 46.7% | inactive | inactive | – | – | – | –
CN(C)CCc1ccc(OCCCNC(=O)c2cc(Br)c[nH]2)c(I)c1 [AGELANESIN B] | > 38 µM | 2.3% | inactive | inactive | – | 9.25 µM | – | –
Cn1c(C(=O)NCCS(=O)(=O)O)cc(Br)c1Br [MAURITAMIDE D] | > 52 µM | 118% | inactive | inactive | – | – | – | –
CN(C)CCc1ccc(OCCCNC(=O)c2cc(Br)c[nH]2)c(Br)c1 [AGELANESIN A] | > 42 µM | -0.5% | inactive | inactive | – | 9.55 µM | – | –
CN(C)CCc1ccc(OCCCNC(=O)c2cc(Br)c(Br)[nH]2)c(I)c1 [AGELANESIN D] | > 33 µM | -2.3% | inactive | inactive | – | 13.1 µM | – | –
C=C1CC[C@@H]2C(C)(C)CCC[C@@]2(C)[C@@H]1CC/C(C)=C/C[n+]1cn(C)c2nc[nH]/c(=N\O)c21.[Cl-] | > 45 µM | 4.2% | inactive | Active | – | 12.5 µM | Dose-dependent effect | Toxic
NC1=N[C@@]23CCCN2C(=O)c2cc(Br)c(Br)n2[C@]3(O)N1 [DIBROMOHYDROXYPHAKELLIN HYDROCHLORIDE] | > 45 µM | 113% | inactive | inactive | – | – | – | –
